One assay has as its system CD8+ T-cells. Put plainly: BM-MDSCs CD8+ T-cell co-culture suppression assay. The assay is classed as cell-based, mice. How it is done:
Generated bone marrow-MDSC (BM-MDSCs) were treated with conditioned media for 24 hours, then sorted into MO-MDSC and PMN-MDSC subsets. Concurrently, CD8+ T-cells were isolated from the spleens of healthy female WT C57BL/6 mice (8-12-weck-old). To isolate CD8+ T-cells, spleens were mechanically disintegrated and filtered through a 70 um filter (Alex Red Ltd., Cat #SO SCS702), the red blood cells were lysed with the red blood lysis buffer (Biological industries, Cat #01-888-1B). Then, CD8+ T-cells were isolated using the EasySep Mouse CD8+T-cell isolation kit (Stemcell Technologies, Cat # 19853) according to the manufacturer's protocol. The isolation purity was measured by staining cells before and after isolation with CD8-PECY7 (BioLegend, Cat #100722, Clone 53-6.7) by flow cytometry.
Post-sorted MDSC subpopulations were co-cultured in complete RPMI with CD8+ T-cells that are activated with Dynabeads® Mouse T-Activator CD3/CD28 kit (Cat # 11456D; 12.5 μl/1×10^6 cells). After 48 hours, the activation beads were removed and cells were incubated with eBioscience Cell Stimulation Cocktail (Invitrogen, Cat #00-4970-93) for 3 hours and then also with BD GolgiStop™ Protein Transport Inhibitor (BD Biosciences, Cat #51-2092KZ) for the detection of IFN-γ. Intracellular staining of IFN-γ in CD8+ T-cells was achieved by using the BD Cytofix/Cytoperm™ Kit (BD Biosciences, Cat #554714) as stated in the manufacturer's instructions and then staining with IFN-γ-FITC (BioLegend, Cat #505806, Clone XMG1.2) and GranzymeB-FITC (BioLegend, Cat #372206, clone QA16A02).

The subject of a further assay is CSF-1. Put plainly: CSF-1 protein levels in B16F10 cells by confocal microscopy and western blot. The class given is cell-based, murine. The note with it: 1.5 μg/ml CBG or 2 μg/ml 3704, 24 hours, both methods. Here is the method:
B16F10 cells were seeded on 13 mm coverslips (Bar Naor Ltd., Cat #BN1001-13-1CN) and treated with either synthetic CBG or Cannabis extract 3704 for 24 hours. Then, cells were fixed at room temperature with 4% PFA (Electron Microscopy Sciences, Cat #15710) in PBS (Sartorius, Cat #02-023-1A) for 20 minutes, permeabilized by 0.3% Triton-100× (Sigma, Cat #T8787) in PBS for 10 minutes and Blocked with a solution containing 5% Normal Goat Serum (Abcam, Cat #ab7481), 0.25% Gelatin (Sigma-Aldrich, Cat #G7041) and 0.1% Triton-X100 in PBS for 1 hour. […] Analysis was conducted using the IMARIS software and results were calculated using the formula: mean AF-488 intensity divided by the number of nuclei.
B16F10 cells, and sorted MO-MDSC and PMN-MDSC achieved as described, were lysed in RIPA buffer (Sigma, Cat #R0278) supplemented with Protease/Phosphatase Inhibitor Cocktail (Cell signaling, Cat #5872S) on ice for 20 minutes. Total protein concentrations were measured using the detergent-compatible protein assay (Bio-Rad, Cat #5000113 and 5000114) and equal amounts were loaded onto a 4%-20% gradient gel (Invitrogen, Cat #XPO4202) and semidry transferred into a nitrocellulose membrane (Bio-Rad, Cat #1704159). […]
For orientation: Immunoblotting shows a protein as a band on a membrane.

The mark [1] stands for this setting: MO-MDSCs exposed to CM of treated B16F10, 48 hours co-incubation.

SMILES strings stand for the structures.

For the molecule `CCCCCc1cc(O)c(C/C=C(\C)CCC=C(C)C)c(O)c1` [CBG, cannabigerol], in the assay on CD8+ T-cells (setting [1]), the “CD8+ IFN-γ expression, co-culture with MO-MDSCs” value is given as “restoration of CD8+ IFN-γ expression in a dose-dependent manner” and the “GrzB expression in CD8+ T-cells co-cultured with MO-MDSCs” value was “trend of restored GrzB expression”. Also, the “GrzB expression in CD8+ T-cells co-cultured with PMN-MDSCs” value with CD8+ T-cells (PMN-MDSC exposed to CM of treated B16F10, 48 hours co-incubation) was “trend of reduced GrzB expression”. The “CD8+ IFN-γ expression, co-culture with PMN-MDSCs” value with CD8+ T-cells (PMN-MDSCs exposed to CM of treated B16F10, 48 hours co-incubation) is “no significant changes with either of the treatments”. Besides, in the assay with CSF-1, the “CSF-1 protein levels in B16F10 cells” value is reported as “decreased CSF-1 protein levels”.
